Experimental data taken from EP0330874A2, “Antibacterial and antitumor agents LL-E33288 epsilon-I and LL-E33288-epsilonBr, with processes and intermediates for producing said agents” (AMERICAN CYANAMID COMPANY, priority 1988, dated 1989).

Test system: lymphocytic leukemia P388
Assay: Lymphocytic Leukemia P388 Test
Assay type: in vivo, BDFl mice
Details: for Median Survival: mice, 30 days observation; for T/C x 100: ratio of survival time treated/control, 125 or over = significant
From the text: Certain in vivo testing systems and protocols have been developed by the National Cancer Institute for testing compounds to determine their suitability as antineoplastic agents. These have been reported in "Cancer Chemotherapy Reports", Part III, Volume 3, No. 2 (1972), Geran, et al. These protocols have established standardized screening tests which are generally followed in the field of testing for antitumor agents. Of these systems, lymphocytic leukemia P388 is particularly significant to the present invention. This neoplasm is utilized for testing as transplantable tumors in mice. Significant antitumor activity shown in this protocol by a percentage increase of mean survival times of the treated(T) animals over the control(C) animals is indicative of similar results in human leukemias and solid tumors.
The animals used were BDFl mice, all of one sex, weighing a minimum of 17 g and all within a 3 g weight range. There were 5 or 6 mice per test group. The tumor transplant was by intraperitoneal injection of 0.5 ml of dilute ascitic fluid containing 10⁶ cells of lymphocytic leukemia P388. The test compounds were administered intraperitoneally at a volume of 0.5 ml in 0.2% Klucel in normal saline on days 1, 5 and 9 (relative to tumor inoculation) at the indicated doses. The mice were weighed and survivors recorded on a regular basis for 30 days. The median survival time and the ratio of survival time for treated(T)/control(C) animals were calculated. The positive control compound for LL-E33288ε-I was 1,4-dihydroxy-5,8-bis[[2-(2-hydroxyethylamino)ethyl]amino]anthraquinone, dihydrochloride (U. S. Patent 4,197,249). The positive control compound for dethiomethylγ₁-I was 1,4-bis[2-(2-hydroxyethylamino)ethylamino]-5,8-dihydroxyanthroquinone dihydrochloride, Lederle Laboratories, Pearl River, New York ("Novantrone"). The controls were given as an intraperitoneal injections in 0.5 ml of 0.2% Klucel on days 1, 5 and 9 at the indicated doses.
If T/C X 100 (%) is 125 or over, the tested compound is considered to have significant anti-tumor activity.

[1] = Dose 0.4 mg/kg intraperitoneally on days 1, 5 and 9
[2] = Dose 0.8 mg/kg intraperitoneally on days 1, 5 and 9
[3] = Dose 1.6 mg/kg intraperitoneally on days 1, 5 and 9

## Cl.Cl.O=C1c2c(O)ccc(O)c2C(=O)c2c(NCCNCCO)ccc(NCCNCCO)c21 [Positive Control, 1,4-dihydroxy-5,8-bis[[2-(2-hydroxyethylamino)ethyl]amino]anthraquinone, dihydrochloride]
[1]
  Median Survival: 21.5 days
  T/C x 100: 215%
[2]
  Median Survival: >30 days
  T/C x 100: >300%
[3]
  Median Survival: 27 days
  T/C x 100: 270%
